Experiments:
[1] = system: Eotaxin-3 release in human whole blood stimulated with IL-4; experiment: Human Whole Blood Eotaxin-3 Assay (IL-4 stimulated eotaxin-3 release); assay type: cell-based; conditions: IL-4 stimulation, 48 h, values given for compounds with >80% Emax, geometric mean
In short: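 Lithium-heparin human whole blood preincubated 2 h at 37° C with 4-fold serially diluted compounds (0.5% DMSO), then stimulated with recombinant human IL-4 ([…]) for 48 h. Eotaxin-3 (CCL26) in supernatant quantified by MSD immunoassay.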

STAT6 = target: T1, STAT6 (Homo sapiens, UniProt P42226); experiment: Stat6 Degrader Assay (HiBiT based, HeLa LgBiT clone 4.14); assay type: cell-based; conditions: HeLa LgBiT clone 4.14 HiBiT-STAT6, 4-24 h incubation; values given for compounds with >80% Emax; geometric mean; read-out: STAT6 degradation DC50
T1 construct: These cells express endogenous STAT6; host or cells: HeLa LgBiT clone 4.14
T1 sequence (P42226 1-847): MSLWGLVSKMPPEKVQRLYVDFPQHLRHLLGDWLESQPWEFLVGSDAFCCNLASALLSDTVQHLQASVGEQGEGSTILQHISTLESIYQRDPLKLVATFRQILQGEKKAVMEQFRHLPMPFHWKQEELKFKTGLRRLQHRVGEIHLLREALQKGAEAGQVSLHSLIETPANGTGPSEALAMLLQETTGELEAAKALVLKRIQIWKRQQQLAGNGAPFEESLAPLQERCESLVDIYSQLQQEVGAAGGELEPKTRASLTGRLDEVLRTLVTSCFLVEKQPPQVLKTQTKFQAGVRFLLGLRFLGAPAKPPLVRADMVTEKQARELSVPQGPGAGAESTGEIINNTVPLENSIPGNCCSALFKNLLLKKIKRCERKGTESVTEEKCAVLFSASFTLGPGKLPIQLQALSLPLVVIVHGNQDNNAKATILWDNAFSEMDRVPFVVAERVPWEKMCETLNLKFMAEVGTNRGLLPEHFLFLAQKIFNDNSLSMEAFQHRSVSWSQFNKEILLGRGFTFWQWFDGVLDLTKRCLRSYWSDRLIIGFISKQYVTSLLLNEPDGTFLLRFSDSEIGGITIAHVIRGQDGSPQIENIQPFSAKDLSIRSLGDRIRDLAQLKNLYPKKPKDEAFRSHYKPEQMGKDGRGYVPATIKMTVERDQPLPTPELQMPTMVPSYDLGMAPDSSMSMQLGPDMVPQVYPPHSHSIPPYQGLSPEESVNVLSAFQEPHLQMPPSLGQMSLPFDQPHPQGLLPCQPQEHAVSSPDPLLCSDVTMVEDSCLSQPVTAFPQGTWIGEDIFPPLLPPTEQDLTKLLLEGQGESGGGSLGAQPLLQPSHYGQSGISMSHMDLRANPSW
In short: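 HeLa LgBiT clone 4.14 cells with CRISPR HiBiT-tagged endogenous STAT6, 5000 cells/well, compound dosed then incubated 4-24 h at 37° C, 5% CO2. Nano-Glo substrate added, 0.5 h, luminescence read as non-degraded STAT6. Terfenadine 50 μM (cell kill) defines 100% degradation.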

Row | Compound | EC50 [1] [nM] | DC50 (STAT6) [nM]
1 | CNc1ccn(-c2ccnc3c2cc(CN2CCC(c4c(F)cc(C(=O)N5CCC(CN6CCN(Cc7ccc8c(c7)n(C)c(=O)n8C7CCC(=O)NC7=O)C[C@@H]6C)CC5)cc4F)CC2)n3C)c(=O)c1 (stereo partly drawn) [Example 3u19, 3-(5-(((S)-4-((1-(3,5-difluoro-4-(1-((1-methyl-4-(4-(methylamino)-2-oxopyridin-1 (2H)-yl)-1H-pyrrolo[2,3-b]pyridin-2-yl)methyl)piperidin-4-yl)benzoyl)piperidin-4-yl)methyl)-3-methyl-piperazin-1-yl)methyl)-3-methyl-2-oxo-2,3-dihydro-1H-benzo[d]imidazol-1-yl)piperidine-2,6-dione] | 0.3 | 0.7
2 | CNc1cc(=O)n(-c2ccnc3c2cc(CN2CC=C(c4c(F)cc(C(=O)N5CCC(CN6CCN(Cc7ccc8c(c7)n(C)c(=O)n8[C@H]7CCC(=O)NC7=O)C[C@@H]6C)CC5)cc4F)CC2)n3C)cc1F (single isomer, unassigned) [Example 3u56] | 3.5 | 8.7
3 | C[C@H]1CN(Cc2cc3c(cc2F)N(C2CCC(=O)NC2=O)C(=O)C3(C)C)CCN1CC1CCN(C(=O)c2cc(F)c(C3=CCN([C@@H](C)c4cc5c(-n6ccc7c(c6=O)CCN7)ccnc5n4C)CC3)c(F)c2)CC1 (stereo partly drawn) [Example 3u200, 3-(5-(((S)-4-((1-(3,5-difluoro-4-(1-((S)-1-(1-methyl-4-(4-oxo-1,2,3,4-tetrahydro-5H-pyrrolo[3,2-c]pyridin-5-yl)-1H-pyrrolo[2,3-b]pyridin-2-yl)ethyl)-1,2,3,6-tetrahydropyridin-4-yl)-benzoyl)piperidin-4-yl)methyl)-3-methylpiperazin-1-yl)methyl)-6-fluoro-3,3-dimethyl-2-oxoindolin-1-yl)piperidine-2,6-dione] | 9.9 | 2
4 | Cc1cc(C(=O)N2CCC(CN3CCN(Cc4cc5c(cc4F)n([C@@H]4CCC(=O)NC4=O)c(=O)n5C)CC3)CC2)cc(F)c1C1=CCN([C@@H](C)c2cc3c(-n4ccc5c(c4=O)CCN5)ccnc3n2C)CC1 (single isomer, unassigned) [Example 3u76] | 1.3 | 3.2
5 | CNc1cc(=O)n(-c2ccnc3c2cc([C@H](C)N2CC=C(c4c(C)cc(C(=O)N5CCC(CN6CCN(Cc7ccc8c(c7)C7(CC7)C(=O)N8C7CCC(=O)NC7=O)C[C@@H]6C)CC5)cc4F)CC2)n3C)cc1F (stereo partly drawn) [Example 3u164, 3-(5′-(((S)-4-((1-(3-fluoro-4-(1-((S)-1-(4-(5-fluoro-4-(methylamino)-2-oxopyridin-1 (2H)-yl)-1-methyl-1H-pyrrolo[2,3-b]pyridin-2-yl)ethyl)-1,2,3,6-tetrahydropyridin-4-yl)-5-methyl-benzoyl)piperidin-4-yl)methyl)-3-methylpiperazin-1-yl)methyl)-2′-oxospiro[cyclopropane-1,3′-indolin]-1′-yl)piperidine-2,6-dione] | 2 | 1
6 | CNc1cc(=O)n(-c2ccnc3c2cc([C@H](C)N2CC=C(c4c(C)cc(C(=O)N5CCC(CC6CCN(c7ccc8c(c7)C7(CC7)C(=O)N8C7CCC(=O)NC7=O)CC6)CC5)cc4F)CC2)n3C)cc1F (stereo partly drawn) [Example 3u284, 3-(5′-(4-((1-(3-fluoro-4-(1-((S)-1-(4-(5-fluoro-4-(methylamino)-2-oxopyridin-1 (2H)-yl)-1-methyl-1H-pyrrolo[2,3-b]pyridin-2-yl)ethyl)-1,2,3,6-tetrahydropyridin-4-yl)-5-methylbenzoyl)piperidin-4-yl)methyl)piperidin-1-yl)-2′-oxospiro[cyclopropane-1,3′-indolin]-1′-yl)piperidine-2,6-dione] | 24 | 22.6
7 | CNc1ccn(-c2ccnc3c2cc(CN2CCC(c4c(F)cc(C(=O)N5CCC(CN6CCN(Cc7ccc8c(c7)n(C)c(=O)n8C7CCC(=O)NC7=O)CC6)CC5)cc4F)CC2)n3C)c(=O)c1 (centres unmarked) [Example 3u29, 3-(5-((4-((1-(3,5-difluoro-4-(1-((1-methyl-4-(4-(methylamino)-2-oxopyridin-1 (2H)-yl)-1H-pyrrolo[2,3-b]pyridin-2-yl)methyl)piperidin-4-yl)benzoyl)piperidin-4-yl)methyl)piperazin-1-yl)methyl)-3-methyl-2-oxo-2,3-dihydro-1H-benzo[d]imidazol-1-yl)piperidine-2,6-dione] | 0.9 | 1.7
8 | CNc1cc(=O)n(-c2ccnc3c2cc([C@H](C)N2CC=C(c4c(C)cc(C(=O)N5CCC(CN6CCN(Cc7ccc8c(c7)n(C7CC7)c(=O)n8C7CCC(=O)NC7=O)C[C@@H]6C)CC5)cc4F)CC2)n3C)cc1F (stereo partly drawn) [Example 3u118, 3-(3-cyclopropyl-5-(((S)-4-((1-(3-fluoro-4-(1-((S)-1-(4-(5-fluoro-4-(methylamino)-2-oxopyridin-1 (2H)-yl)-1-methyl-1H-pyrrolo[2,3-b]pyridin-2-yl)ethyl)-1,2,3,6-tetrahydropyridin-4-yl)-5-methylbenzoyl)piperidin-4-yl)methyl)-3-methylpiperazin-1-yl)methyl)-2-oxo-2,3-dihydro-1H-benzo[d]imidazol-1-yl)piperidine-2,6-dione] | 2.2 | 1.2
9 | CNc1ccn(-c2ccnc3c2cc(CN2CCC(c4c(F)cc(C(=O)N5CCC(CN6CCN(Cc7ccc8c(c7)C7(CC7)C(=O)N8C7CCC(=O)NC7=O)C[C@@H]6C)CC5)cc4F)CC2)n3C)c(=O)n1 (stereo partly drawn) [Example 3h12, 3-(5′-(((S)-4-((1-(3,5-difluoro-4-(1-((1-methyl-4-(4-(methylamino)-2-oxopyrimidin-1 (2H)-yl)-1H-pyrrolo[2,3-b]pyridin-2-yl)methyl)piperidin-4-yl)benzoyl)piperidin-4-yl)methyl)-3-methylpiperazin-1-yl)methyl)-2′-oxospiro[cyclopropane-1,3′-indolin]-1′-yl)piperidine-2,6-dione] | 1.3 | 3.2
10 | CNc1cc(=O)n(-c2ccnc3c2cc(CN2CCC(c4c(F)cc(C(=O)N5CCC(CN6CCN(Cc7ccc8c(c7)C(C)(C)C(=O)N8[C@@H]7CCC(=O)NC7=O)C[C@@H]6C)CC5)cc4F)CC2)n3C)cc1F (single isomer, unassigned) [Example 3u50] | 30.2 | 0.9
11 | CNc1ccn(-c2ccnc3c2cc([C@H](C)N2CC=C(c4c(C)cc(C(=O)N5CCC(CN6CCN(c7ccc8c(c7)n(C)c(=O)n8[C@@H]7CCC(=O)NC7=O)CC6)CC5)cc4F)CC2)n3C)c(=O)c1 (single isomer, unassigned) [Example 3u294] | 0.3 | 0.8
12 | CNc1ccn(-c2ccnc3c2cc([C@H](C)N2CC=C(c4c(C)cc(C(=O)N5CCC(CN6CCN(Cc7ccc8c(c7)n(C)c(=O)n8[C@H]7CCC(=O)NC7=O)C[C@@H]6C)CC5)cc4F)CC2)n3C)c(=O)c1 (single isomer, unassigned) [Example 3u33] | 0.3 | 0.2
13 | CNc1cc(=O)n(-c2ccnc3c2cc(CN2CCC(c4c(F)cc(C(=O)N5CCC(CN6CCN(Cc7ccc8c(c7)C(C)(C)C(=O)N8[C@H]7CCC(=O)NC7=O)C[C@@H]6C)CC5)cc4F)CC2)n3C)cc1F (single isomer, unassigned) [Example 3u49] | 12.9 | 1.7
14 | CNc1ccn(-c2ccnc3c2cc([C@H](C)N2CC=C(c4c(F)cc(C(=O)N5CCC(CN6CCN(Cc7ccc8c(c7)n(C7CC7)c(=O)n8[C@@H]7CCC(=O)NC7=O)C[C@@H]6C)CC5)cc4F)CC2)n3C)c(=O)c1 (single isomer, unassigned) [Example 3u212] | 0.8 | 7.5
15 | CNc1cc(=O)n(-c2ccnc3c2cc([C@H](C)N2CC=C(c4c(C)cc(C(=O)N5CCC(CN6CCN(Cc7ccc8c(c7)C7(CC7)C(=O)N8[C@H]7CCC(=O)NC7=O)CC6)CC5)cc4F)CC2)n3C)cc1F (single isomer, unassigned) [Example 3u67] | 5.8 | 1.4
16 | CNc1cc(=O)n(-c2ccnc3c2cc([C@H](C)N2CC=C(c4c(C)cc(C(=O)N5CCC(CN6CCN(Cc7ccc8c(c7)n(C7CC7)c(=O)n8[C@H]7CCC(=O)NC7=O)C[C@@H]6C)CC5)cc4F)CC2)n3C)cc1F (single isomer, unassigned) [Example 3u119] | 2.2 | 2.1
